Test results from US8575357B2, “Substituted (thiazolyl-carbonyl)imidazolidinones and use thereof” (AiCuris GmbH & Co. KG, priority 2009, dated 2013).

Experiments:
Type in all cases: cell-based
HIV-1LAI = experiment: H9 assay with wild-type HIV-1 (HIV-1LAI supernatant infection, AlamarBlue); conditions: Human immunodeficiency virus 1, 120 h, H9 cells, 10% FCS, 5 days
Description: For the mixture for a 96-well MTP, 3 million PBLs are pelleted, suspended in 1 ml of RPMI 1640 medium/10% FCS and incubated together with a suitable amount of HIV-1LAI (NIH AIDS Research & Reference Reagent Program, Germantown, USA) at 37° C. for 2 hours (pellet infection). Unadsorbed viruses are subsequently washed out with PBS, and the infected cells are pelleted again and suspended in 18 ml of RPMI 1640 medium/10% FCS/interleukin-2 (40 U/ml). 180 μl thereof are pipetted into each well of a white 96-well MTP with 20 μl of test substance in suitable dilution. Alternatively, after preparation of the substance dilutions in the MTP, the HIV is pipetted in together with the cells and is not washed out again (supernatant infection). In order to avoid edge effects, the wells at the edge of the MTP are not used for substance dilutions. The second vertical row of the MTP contains only infected cells (virus control) and the eleventh vertical row only uninfected cells (cell control), in each case in RPMI 1640 medium/10% FCS/interleukin-2 (40 U/ml). The other wells of the MTP contain the compounds of the invention in various concentrations starting from the third vertical row, from which the test substances are diluted in 3-fold steps up to the tenth vertical row 3^7-fold. The test substances are dissolved in DMSO, whereby the final DMSO concentration in the test mixture is 1%. The test mixtures are incubated at 37° C./5% CO2. After 5 and 7 days, 50 μl of cell-free supernatant are removed from each well to determine the amount of p24 present by means of a p24 ELISA (HIV-1 p24^CA Antigen Capture Assay Kit, NCI-Frederick Cancer Research and Development Center, Frederick, USA). From the resulting values of the photometric evaluation (450/620 nm) the EC50 values of the test substances are determined as the concentration at which the amount of p24 is 50% of the untreated infected cells.
Alternatively, H9 cells (ATCC, Wesel, Germany) are employed instead of PBLs for testing the test substances. H9 cells are incubated in RPMI 1640 medium with 2% or 10% FCS as a HIV-1LAI supernatant infection at 37° C./5% CO2, (20 μl of substance dilution and 80 μl of cells/virus per well) in accordance with the pattern described above for 5 days. Subsequently, 10 μl of AlamarBlue (Invitrogen, Karlsruhe, Germany) are added to each well, and the MTPs are incubated at 37° C. for 3 hours before the fluorimetric evaluation takes place (544/590 nm). The resulting values are about 40 000 for the untreated uninfected cells and about 7000 for the untreated infected cells. In the low concentration range, the EC50 values of the test substances are determined as the concentration at which the fluorescence is 50% of the untreated uninfected cells (in each case subtracting the values of the untreated infected cells). In addition, in the high concentration range, the CC50 values of the test substances are determined as the concentration at which the fluorescence is 50% of the untreated uninfected cells (in each case subtracting the values of the untreated infected cells).

[1] = system: HIV-1NL4-3 reporter virus, wild-type; experiment: Light assay with wild-type HI reporter virus in MT4 7F2 cells; conditions: Human immunodeficiency virus 1, 120 h, read-out: EC50 (nM) MT4 7F2 cells HIV-1NL4-M3 wt 2% FCS
Description: (§1) For the mixture for a 96-well MTP, 3 million MT4 7F2 cells are pelleted, suspended in 1 ml of RPMI 1640 medium without phenol red (Invitrogen, Karlsruhe, Germany)/10% FCS/10% AIM-V (Invitrogen, Karlsruhe, Germany) and incubated together with a suitable amount of the corresponding HIV-1NL4-3 reporter virus at 37° C. for 2 hours (pellet infection). Unadsorbed viruses are subsequently washed out with PBS, and the infected cells are pelleted again and suspended in 8 ml of RPMI 1640 medium without phenol red/2% or 10% FCS/10% AIM-V. 80 μl thereof are pipetted into each well of a white 96-well MTP with 20 μl of test substance in suitable dilution. To avoid edge effects, the wells on the edge of the MTP are not used for substance dilutions. The second vertical row of the MTP contains only infected cells (virus control) and the eleventh vertical row only uninfected cells (cell control), in each case in RPMI 1640 medium without phenol red/2% or 10% FCS/10% AIM-V. The other wells of the MTP contain the compounds of the invention in various concentrations starting from the third vertical row, from which the test substances are diluted in 3-fold steps up to the tenth vertical row 3^7-fold. The test substances are dissolved in DMSO, whereby the final DMSO concentration in the test mixture is 1%. The test mixtures are incubated at 37° C./5% CO2 for five days and, after the addition of 15 μl of Lu164 substrate (5 mg/ml coelenterazine dissolved in 30 μM glutathione/DMSO, 100 mM NaCl, 1M MES, 100 mM glutathione), evaluated by luminometry. The resulting values are in the region of 1 000 000 RLUs (relative light units) for the virus control and 300 to 400 RLUs for the cell control. The EC50 values of the test substances are determined as the concentration at which the virus replication measured in RLUs is 50% of the untreated infected cells.

[2] = system: HIV-1NL4-3 reporter virus, reverse transcriptase mutations K103N-Y181C; experiment: Light assay with inhibitor-resistant HI reporter virus in MT4 7F2 cells; conditions: Human immunodeficiency virus 1, 120 h, read-out: EC50 (nM) MT4 7F2 cells HIV-1NL4-M3 K103N-Y181C 2% FCS
Description: as §1

Row | Compound | EC50 (HIV-1LAI) [nM] | EC50 [1] [nM] | EC50 [2] [nM]
1 | N#Cc1cc(-c2nc(C(=O)N3CNC(=O)C3)sc2-c2cccc(Cl)c2)ccc1F [Example 14, 5-{5-(3-Chlorophenyl)-2-[(4-oxoimidazolidin-1-yl)carbonyl]-1,3-thiazole-4-yl}-2-fluorobenzenecarbonitrile] | 4 | 1 | 49
2 | N#Cc1cc(F)cc(-c2sc(C(=O)N3CNC(=O)C3)nc2-c2cccc(Cl)c2)c1 [Example 21, 3-{4-(3-Chlorophenyl)-2-[(4-oxoimidazolidin-1-yl)carbonyl]-1,3-thiazole-5-yl}-5-fluorobenzenecarbonitrile] | 2 | 2 | 79
3 | O=C1CN(C(=O)c2nc(-c3cccc(Cl)c3)c(-c3cccc(C(F)(F)F)c3)s2)CN1 [Example 8, 1-({4-(3-Chlorophenyl)-5-[3-(trifluoromethyl)phenyl]-1,3-thiazole-2-yl}carbonyl)imidazolidin-4-one] |  | 46 | 142
4 | N#Cc1cc(-c2sc(C(=O)N3CNC(=O)C3)nc2-c2cccc(Cl)c2)ccc1F [Example 5, 5-{4-(3-Chlorophenyl)-2-[(4-oxoimidazolidin-1-yl)carbonyl]-1,3-thiazole-5-yl}-2-fluorobenzenecarbonitrile] | 80 | 38 | 228
5 | N#Cc1cccc(-c2nc(C(=O)N3CNC(=O)C3)sc2-c2cccc(C#N)c2)c1 [Example 19, 3,3′-{2-[(4-Oxoimidazolidin-1-yl)carbonyl]-1,3-thiazole-4,5-diyl}benzenecarbonitrile] | 1 | 2 | 94
6 | O=C1CN(C(=O)c2nc(-c3cccc(Cl)c3)c(-c3ccc(F)c(Cl)c3)s2)CN1 [Example 4, 1-{[5-(3-Chloro-4-fluorophenyl)-4-(3-chlorophenyl)-1,3-thiazole-2-yl]carbonyl}imidazolidin-4-one] | 80 | 10 | 143
7 | O=C1CN(C(=O)c2nc(-c3cc(F)cc(Cl)c3)c(-c3cccc(Cl)c3)s2)CN1 [Example 6, 1-{[4-(3-Chloro-5-fluorophenyl)-5-(3-chlorophenyl)-1,3-thiazole-2-yl]carbonyl}imidazolidin-4-one] | 95 | 58 | 282
8 | N#Cc1cccc(-c2sc(C(=O)N3CNC(=O)C3)nc2-c2cccc(Cl)c2)c1 [Example 7, 3-{4-(3-Chlorophenyl)-2-[(4-oxoimidazolidin-1-yl)carbonyl]-1,3-thiazole-5-yl}benzenecarbonitrile] | 20 | 36 | 303
9 | N#Cc1cc(-c2sc(C(=O)N3CNC(=O)C3)nc2-c2ccc(F)c(Cl)c2)ccc1F [Example 9, 5-{4-(3-Chloro-4-fluorophenyl)-2-[(4-oxoimidazolidin-1-yl)carbonyl]-1,3-thiazole-5-yl}-2-fluorobenzenecarbonitrile] | 40 | 35 | 118
10 | N#Cc1cc(F)cc(-c2sc(C(=O)N3CNC(=O)C3)nc2-c2ccc(F)c(C#N)c2)c1 [Example 15, 5-{5-(3-Cyano-5-fluorophenyl)-2-[(4-oxoimidazolidin-1-yl)carbonyl]-1,3-thiazole-4-yl}-2-fluorobenzenecarbonitrile] | 2 | 9 | 87
11 | N#Cc1cccc(-c2sc(C(=O)N3CNC(=O)C3)nc2-c2ccc(F)c(C#N)c2)c1 [Example 16, 5-{5-(3-Cyanophenyl)-2-[(4-oxoimidazolidin-1-yl)carbonyl]-1,3-thiazole-4-yl}-2-fluorobenzenecarbonitrile] | 2 | 15 | 123
12 | N#Cc1cc(F)cc(-c2nc(C(=O)N3CNC(=O)C3)sc2-c2cc(F)cc(Cl)c2)c1 [Example 12, 3-{5-(3-Chloro-5-fluorophenyl)-2-[(4-oxoimidazolidin-1-yl)carbonyl]-1,3-thiazole-4-yl}fluorobenzenecarbonitrile] | 80 | 29 | 119
